We go through nine compounds from US6949679B1, “Polyamine transport inhibitors” (Universite Laval, priority 1998, dated 2005).

The test system of data set [1] is ZR-75-1 cells. The experiment in a line: Reversal of DFMO-induced growth inhibition by exogenous spermidine. It is filed as cell-based, human. The following applies: Homo sapiens, ZR-75-1, 264 h; 1 mM DFMO, 11-day incubation. The procedure: (§1) For growth studies, ZR-75-1 cells were cultured in MEZR medium or in phenol red-free RPMI 1640 supplemented with 2 mM L-glutamine, 1 mM sodium pyruvate, 15 mM Hepes, antibiotics, 1 nM 17β-estradiol, 0.5 μg of bovine insulin per ml and 5% (v/v) charcoal-treated fetal bovine serum (SD medium), as indicated in the text. When polyamines or polyamine analogs were added to serum-containing media, 1 mM aminoguanidine was added to inhibit bovine serum amine oxidase (BSAO) activity (Morgan, D. M. L. 1989, in The Physiology of Polyamines (Bachrach, U., and Heimer, Y. M. eds) Vol. I, pp. 203-229, CRC Press, Boca Raton). The effect of the transport inhibitors on cell growth was measured by incubating ZR-75-1 cells for 11 days in medium supplemented with antagonist, polyamines and/or 1 mM DFMO as indicated, followed by colorimetric determination of DNA content with 3,4-diaminobenzoic acid (Simard, J., Dauvois, S., Haagensen, D. E., Lėvesque C., Mėrand, Y. and Labriė, F. 1990. Endocrinology 126: 3223-3231).
This possibility was assessed by comparing the ability of DESC to prevent the reversal of DFMO-induced growth inhibition by increasing concentrations of exogenous spermidine.

In data set [2] the test system is polyamine transporter. The experiment in a line: Inhibition of [14C]spermine uptake in ZR-75-1 cells. The note with it: FIG. 32, read-out: Apparent Ki, spermine uptake. The format is cell-based, human. The procedure:
The rate of putrescine and spermidine transport was determined in ZR-75-1 cells incubated in serum-free RPMI 1640 medium as described (Lessard, M., Zhao, C., Singh, S. M. and Poulin, R. 1995. J. Biol. Chem. 270: 1685-1694), using [^3H]putrescine (30 Ci/mol) and [^3H]spermidine (20 Ci/mol), respectively as substrates for a 20 minute-assay period. […] Uptake activity was expressed per amount of DNA as fluorometrically determined using 3,4-diaminobenzoic acid (Simard, J., Dauvois, S., Haagensen, D. E., Lėvesque, C., Mėrand, Y. and Labrie, F. 1990. Endocrinology, 126: 3223-3231). For the determination of spermidine uptake activity in CHO-K1 cells, 80% confluent cell monolayers were rinsed twice with PBS and incubated for 20 minutes at 37° C. in 400 μl of buffer A (20 mM Tris-HCl, pH 7.4; 0.42 mM CaCl2; 0.41 mM MgSO4; 103 mM NaCl; 5.7 mM KCl; 1.1 mM D-glucose) containing 5 μM [^3H]spermidine (20 Ci/mol). Cell cultures were then washed twice with 1 ml PBS containing 5.7 mM sym-norspermidine. Cells were then lysed with 200-μl aliquot of 1 N NaOH and incubated for 30 minutes at 60° C. After neutralization with 200 μl of 1 N HCl, radioactivity was determined from a 250-μl of the cell lysate by scintillation counting. Uptake activity was expressed per amount of total cellular protein as determined by the method of Bradford (Bradford, M. M. 1976. Anal. Biochem. 72: 248-254). Non-specific binding of radioactive substrate was similarly determined in parallel for both cell lines after a 15 second-incubation with 400 μl of ice-cold uptake solution.
(§2) Kinetic analysis of polyamine transport was performed by determining uptake activity in the presence of a 3 μM [^3H]putrescine or 1 μM [^3H]spermidine plus increasing concentrations of nonradioactive substrate. K[…] Ki and Vmax values were then estimated by Lineweaver-Burke analysis. For competitive inhibitors, Ki values were also estimated by measuring uptake activity in the presence of logarithmically increasing concentrations of antagonist, and using the Cheng-Prusoff equation (Cheng, Y.-C. and Prusoff, W. H. 1973. Biochem. Pharmacol. 22: 3099-3108) by iterative curve fitting for a sigmoidal curve. For mixed competitive/noncompetitive inhibition, two methods were used to calculate kinetic constants. First, the equation [drawing 2] where v, s, and i are the transport velocity, substrate concentration and inhibitor concentration respectively, was used to calculate the inhibition constants for inhibitor/carrier complex formation (Ki) and carrier/inhibitor/substrate complex formation (Ki′) (Dixon, M. and Webb, E. C. 1976. Enzymes, 3rd Ed., Academic Press, San Diego, Calif.). Alternatively, the value of Ki for a mixed competitor/non-competitor was estimated from the intersect of equations v^−1 vs i at two different substrate concentrations (Dixon, M. and Webb, E. C. 1976. Enzymes, 3rd Ed., Academic Press, San Diego, Calif.). Intracellular Accumulation
(§3) In order to evaluate the effectiveness of dimeric triamines as polyamine transport inhibitors, we synthesized N,N′-bis(3-aminopropyl),N,N′-bis(4-aminobutyl)cystamine or BABAC (structure 1, FIG. 25; FIG. 31), and its thiol form N-(3-aminopropyl),N-(4-aminobutyl)cysteamine or AAC (FIG. 31) according to Scheme 4 described above (FIG. 30), using spermidine as a precursor polyamine. The ability of BABAC and AAC to inhibit the intracellular uptake of radio-labeled putrescine and spermidine in the ZR-75-1 human breast cancer cell line was then determined according to standard published procedures (Lessard, et al. and Poulin, et al.) Briefly, ZR-75-1 cells were grown for four days in twenty-four well plates in RPMI 1640 medium supplemented with 10% fetal bovine serum.

Data set [3] has as its system polyamine transporter. The experiment in a line: Inhibition of [3H]putrescine uptake in ZR-75-1 cells. The format is cell-based, human. The note with it: ZR-75-1 cells, FIG. 32; 20 μM and 3 μM substrate, respectively; read-out: Apparent Ki, putrescine uptake. The method, then:
(§4) The rate of putrescine and spermidine transport was determined in ZR-75-1 cells incubated in serum-free RPMI 1640 medium as described (Lessard, M., Zhao, C., Singh, S. M. and Poulin, R. 1995. J. Biol. Chem. 270: 1685-1694), using [^3H]putrescine (30 Ci/mol) and [^3H]spermidine (20 Ci/mol), respectively as substrates for a 20 minute-assay period. Spermine uptake was similarly determined, using 1 μM [^14C]spermine (32 Ci/mol) as substrate. Uptake activity was expressed per amount of DNA as fluorometrically determined using 3,4-diaminobenzoic acid (Simard, J., Dauvois, S., Haagensen, D. E., Lėvesque, C., Mėrand, Y. and Labrie, F. 1990. Endocrinology, 126: 3223-3231). For the determination of spermidine uptake activity in CHO-K1 cells, 80% confluent cell monolayers were rinsed twice with PBS and incubated for 20 minutes at 37° C. in 400 μl of buffer A (20 mM Tris-HCl, pH 7.4; 0.42 mM CaCl2; 0.41 mM MgSO4; 103 mM NaCl; 5.7 mM KCl; 1.1 mM D-glucose) containing 5 μM [^3H]spermidine (20 Ci/mol). Cell cultures were then washed twice with 1 ml PBS containing 5.7 mM sym-norspermidine. Cells were then lysed with 200-μl aliquot of 1 N NaOH and incubated for 30 minutes at 60° C. After neutralization with 200 μl of 1 N HCl, radioactivity was determined from a 250-μl of the cell lysate by scintillation counting. Uptake activity was expressed per amount of total cellular protein as determined by the method of Bradford (Bradford, M. M. 1976. Anal. Biochem. 72: 248-254). Non-specific binding of radioactive substrate was similarly determined in parallel for both cell lines after a 15 second-incubation with 400 μl of ice-cold uptake solution.
as §2, §3

Data set [4] relates to polyamine transporter. The experiment in a line: Inhibition of [3H]spermidine uptake in ZR-75-1 cells. It is filed as cell-based, human. The following applies: FIG. 32, 20 μM and 3 μM substrate, respectively, read-out: Apparent Ki, spermidine uptake. The method, then: as §4
as §2, with “Alternatively, the value of Ki for a mixed competitor/non-competitor was estimated from the intersect of equations v^−1 vs i at two different substrate concentrations (Dixon, M. and Webb, E. C. 1976. Enzymes, 3rd Ed., Academic Press, San Diego, Calif.). Intracellular Accumulation” left out
as §3

The next data set is described as follows: in vitro. The following applies: human.
Data set [5] relates to ZR-75-1 cells. The experiment in a line: Time course of intracellular [3H]spermidine accumulation in presence of transport antagonists. It is filed as cell-based, human. The following applies: 200 μM CHX, after 4 hours. The procedure:
The time course of intracellular accumulation of spermidine in the presence of transport antagonists was determined by incubating ZR-75-1 cells in 24-well plates with DESC (50 or 200 μM) or MESC (200 μM) in dissolved in MEZR medium containing 5 μM [^3H]spermidine in the presence or absence of cycloheximide (CHX, 200 μM), and harvesting at the indicated times for the determination of intracellular radioactive contents, as described above for polyamine uptake assays.

Data set [6] concerns polyamine transporter. The experiment in a line: Inhibition of [3H]spermidine uptake in CHO-K1 cells. The following applies: MESC thioether derivatives. It is filed as cell-based, Chinese hamster. The method, then: To 1 ml of an extemporaneously prepared, DTT-free solution of MESC (20 mM in […]) were added 50 μl of 50 mM Tris-HCl (pH 7.0) and 105 μl of a 40 mM solution of either iodoacetamide, LY iodoacetamide or ASIB in a light-protected microcentrifuge tube, and the mixture was incubated for 2 hours at 37° C. […] Excess iodoacetamide was then inactivated by adding DTT to a final concentration of 40 mM and incubating the solution for 2 hours at 37° C. […] The effect of the respective DTT-inactivated iodoacetamide on spermidine transport was determined in parallel by incubating cells with the same reaction mixture from which MESC was omitted. […] J. Biol. […] Cells were then lysed with 200-μl aliquot of 1 N NaOH and incubated for 30 minutes at 60° C. After neutralization with 200 μl of 1 N HCl, radioactivity was determined from a 250-μl of the cell lysate by scintillation counting. Uptake activity was expressed per amount of total cellular protein as determined by the method of Bradford (Bradford, M. M. 1976. Anal. Biochem. 72: 248-254). […] K[…] Ki and Vmax values were then estimated by Lineweaver-Burke analysis. For competitive inhibitors, Ki values were also estimated by measuring uptake activity in the presence of logarithmically increasing concentrations of antagonist, and using the Cheng-Prusoff equation (Cheng, Y.-C. and Prusoff, W. H. 1973. Biochem. Pharmacol. 22: 3099-3108) by iterative curve fitting for a sigmoidal curve. For mixed competitive/noncompetitive inhibition, two methods were used to calculate kinetic constants. […] C. 1976. Enzymes, 3rd Ed., Academic Press, San Diego, Calif.). […] C. 1976. Enzymes, 3rd Ed., Academic Press, San Diego, Calif.). Intracellular Accumulation

In data set [7] the test system is ZR-75-1 cells. The data set is described as follows: Effect on ZR-75-1 cell proliferation (11 days, DNA content). The format is cell-based, human. The note with it: 1 mM. The method, then:
as §1, with “3223-3231). Medium was changed every other day in these experiments because of the slow reaction of the compound with an unknown component present in the IMEM and RPMI 1640 medium formulation.” for “3223-3231).”
The biocompatibility of DESC, MESC, and DEASC was thus evaluated during a long-term (11-day) incubation with ZR-75-1 cells grown in RPMI 1640 containing 10% (v/v) FBS in the absence and presence of 1 mM aminoguanidine. […] Weak growth inhibition caused by the mixed MESC-cysteamine disulfide, however, apparently involved degradation by a copper amine oxidase.

Usually inhibition stands for the drop in the measured response relative to a control, in per cent. As usually defined, the IC50 is the concentration that gives 50% inhibition. A low value points to greater potency.

Source text for in vitro: FIG. 34 represents the relative cytotoxicity of sym-norspermidine (NSpd), BABAC and TADAX in ZR-75-1 human breast cancer cells. Data are the mean±SD of triplicate determinations from a representative experiment.

With `NCCCC(N)(C(=O)O)C(F)F` (racemic) [DFMO, D,L-α-difluoromethylornithine], the inhibition at 1000 µM in the data set on ZR-75-1 cells [1] was roughly 50%.

For `NCCCCN(CCS)CCCN` [AAC, N-(3-aminopropyl),N-(4-aminobutyl)cysteamine], the figures for the Ki with polyamine transporter [2], in the data set on polyamine transporter [3] and in the data set with polyamine transporter [4] were 3900 nM, 540 nM and 4370 nM, respectively.

Turning to `NCCCCN(CCCN)CCSSCCN(CCCN)CCCCN` [BABAC, N,N′-bis(3-aminopropyl),N,N′-bis(4-aminobutyl)cystamine], the results for the Ki in the data set with polyamine transporter [2], in the data set on polyamine transporter [3] and in the data set with polyamine transporter [4] were 2100 nM, 150 nM and 680 nM, respectively. Further, the IC50 in “in vitro” (ZR-75-1 cells) was 17000 nM.

Turning to `C[C@@H]1C[C@@H]([C@H](O)CC2CC(=O)NC(=O)C2)C(=O)[C@@H](C)C1` [CHX, cycloheximide, reference compound], in the data set with ZR-75-1 cells [5], the “Increase in spermidine accumulation” value came out at 4 fold.

Take `[N-]=[N+]=Nc1ccc(C(=O)NCCCCNC(=O)CSCCNC(=O)C(CCCNCCCN)NCCCN)c(O)c1` (centres unmarked) [MESC-ASIB]: the “Ki toward spermidine uptake compared with MESC” value in the data set on polyamine transporter [6] is listed as “virtually identical to that of MESC”.

For `NCCCNCCCC(NCCCN)C(=O)NCCSCC(=O)NCCN1C(=O)c2cc(S(=O)(=O)O)cc3c(N)c(S(=O)(=O)O)cc(c23)C1=O` (centres unmarked) [MESC-LY], in the data set with polyamine transporter [6], the “Ki toward spermidine uptake compared with MESC” value is reported as “virtually identical to that of MESC”.

For `NCCCNCCCC(NCCCN)C(=O)NCCSCC(N)=O` (centres unmarked) [MESC-acetamide], in the data set on polyamine transporter [6], the “Ki toward spermidine uptake compared with MESC” value is “virtually identical to that of MESC”.

In the case of `N=C(N)NN` [aminoguanidine, reference compound], the “Effect of aminoguanidine alone on cell growth” value in the data set on ZR-75-1 cells [7] was “slight inhibitory effect”.

With `NCCCNCCCN` [sym-norspermidine, N-(3-aminopropyl)-1,3-diaminopropane, reference compound], the IC50 in the data set “in vitro” is 6400 nM.
